#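 Method: 48-hour compound exposure of cells in 96-well plates, five concentrations, linear interpolation of endpoints. At the GI50, growth is halved. TGI is the concentration that stops growth completely.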
# Assays:
# Assay in all cases: NCI tumour cell line growth inhibition, 48 h
# UO-31 renal = tested on: UO-31 renal
# HOP-62 NSCLC = tested on: HOP-62 NSCLC
# NCI-H226 lung = tested on: NCI-H226 lung
# CCRF-CEM leukemia = tested on: CCRF-CEM leukemia
# DU-145 prostate = tested on: DU-145 prostate
# NCI-H23 lung = tested on: NCI-H23 lung
# KM12 colon = tested on: KM12 colon
# HCT-15 colon = tested on: HCT-15 colon
# A498 renal = tested on: A498 renal
# SK-MEL-28 melanoma = tested on: SK-MEL-28 melanoma
# OVCAR-3 ovarian = tested on: OVCAR-3 ovarian
# NCI-H460 lung = tested on: NCI-H460 lung
# MOLT-4 leukemia = tested on: MOLT-4 leukemia
# HCT-116 colon = tested on: HCT-116 colon
# OVCAR-5 ovarian = tested on: OVCAR-5 ovarian
# UACC-257 melanoma = tested on: UACC-257 melanoma
# IGROV1 ovarian = tested on: IGROV1 ovarian
# SK-MEL-5 melanoma = tested on: SK-MEL-5 melanoma
# OVCAR-4 ovarian = tested on: OVCAR-4 ovarian
# M14 melanoma = tested on: M14 melanoma
# MALME-3M melanoma = tested on: MALME-3M melanoma
# SK-OV-3 ovarian = tested on: SK-OV-3 ovarian
# SK-MEL-2 melanoma = tested on: SK-MEL-2 melanoma
# T-47D breast = tested on: T-47D breast
# MCF7 breast = tested on: MCF7 breast
# MDA-MB-231 breast = tested on: MDA-MB-231 breast
# SF-539 CNS = tested on: SF-539 CNS
# UACC-62 melanoma = tested on: UACC-62 melanoma
# HOP-92 NSCLC = tested on: HOP-92 NSCLC
# SR leukemia = tested on: SR leukemia
# NCI-H522 lung = tested on: NCI-H522 lung
# SF-268 CNS = tested on: SF-268 CNS
# LOX IMVI melanoma = tested on: LOX IMVI melanoma
# BT-549 breast = tested on: BT-549 breast
# NCI/ADR-RES ovarian = tested on: NCI/ADR-RES ovarian
# U251 CNS = tested on: U251 CNS
# K-562 leukemia = tested on: K-562 leukemia
# PC-3 prostate = tested on: PC-3 prostate
# OVCAR-8 ovarian = tested on: OVCAR-8 ovarian
# RXF 393 renal = tested on: RXF 393 renal
# RPMI-8226 leukemia = tested on: RPMI-8226 leukemia
# TK-10 renal = tested on: TK-10 renal
# COLO 205 colon = tested on: COLO 205 colon
# ACHN renal = tested on: ACHN renal
# HS 578T breast = tested on: HS 578T breast
# CAKI-1 renal = tested on: CAKI-1 renal
# SW-620 colon = tested on: SW-620 colon
# SF-295 CNS = tested on: SF-295 CNS
# HCC-2998 colon = tested on: HCC-2998 colon
# 786-0 renal = tested on: 786-0 renal
# MDA-MB-435 = tested on: MDA-MB-435
# SNB-19 CNS = tested on: SNB-19 CNS
# SN12C renal = tested on: SN12C renal
# A549 NSCLC = tested on: A549 NSCLC
# SNB-75 CNS = tested on: SNB-75 CNS
# EKVX NSCLC = tested on: EKVX NSCLC
# HT29 colon = tested on: HT29 colon
# HL-60(TB) leukemia = tested on: HL-60(TB) leukemia
structure (smiles),measurement,setting,value
CCN(CC)c1ccc(/C=N/NC(=O)c2ccc(Nc3ccnc(C(F)(F)F)c3)cc2)c(O)c1,GI50,UO-31 renal,117 nM
same,TGI,UO-31 renal,1910 nM
same,GI50,HOP-62 NSCLC,187 nM
same,TGI,HOP-62 NSCLC,1070 nM
same,GI50,NCI-H226 lung,288 nM
same,TGI,NCI-H226 lung,2340 nM
same,GI50,CCRF-CEM leukemia,53.2 nM
same,TGI,CCRF-CEM leukemia,771 nM
same,GI50,DU-145 prostate,362 nM
same,TGI,DU-145 prostate,> 46900 nM
same,GI50,NCI-H23 lung,428 nM
same,TGI,NCI-H23 lung,9800 nM
same,GI50,KM12 colon,316 nM
same,TGI,KM12 colon,4100 nM
same,GI50,HCT-15 colon,66.6 nM
same,TGI,HCT-15 colon,2550 nM
same,GI50,A498 renal,479 nM
same,TGI,A498 renal,10600 nM
same,GI50,SK-MEL-28 melanoma,320 nM
same,TGI,SK-MEL-28 melanoma,> 27300 nM
same,GI50,OVCAR-3 ovarian,109 nM
same,TGI,OVCAR-3 ovarian,> 70100 nM
same,GI50,NCI-H460 lung,212 nM
same,TGI,NCI-H460 lung,1480 nM
same,GI50,MOLT-4 leukemia,117 nM
same,TGI,MOLT-4 leukemia,1380 nM
same,GI50,HCT-116 colon,141 nM
same,TGI,HCT-116 colon,1340 nM
same,GI50,OVCAR-5 ovarian,380 nM
same,TGI,OVCAR-5 ovarian,4750 nM
same,GI50,UACC-257 melanoma,412 nM
same,TGI,UACC-257 melanoma,> 31000 nM
same,GI50,IGROV1 ovarian,158 nM
same,GI50,SK-MEL-5 melanoma,412 nM
same,TGI,SK-MEL-5 melanoma,1710 nM
same,GI50,OVCAR-4 ovarian,152 nM
same,TGI,OVCAR-4 ovarian,> 100000 nM
same,GI50,M14 melanoma,250 nM
same,TGI,M14 melanoma,1420 nM
same,GI50,MALME-3M melanoma,482 nM
same,TGI,MALME-3M melanoma,5700 nM
same,GI50,SK-OV-3 ovarian,324 nM
same,TGI,SK-OV-3 ovarian,8360 nM
same,GI50,SK-MEL-2 melanoma,718 nM
same,GI50,T-47D breast,332 nM
same,TGI,T-47D breast,3700 nM
same,GI50,MCF7 breast,326 nM
same,TGI,MCF7 breast,> 100000 nM
same,GI50,MDA-MB-231 breast,396 nM
same,TGI,MDA-MB-231 breast,3970 nM
same,GI50,SF-539 CNS,234 nM
same,TGI,SF-539 CNS,870 nM
same,GI50,UACC-62 melanoma,229 nM
same,TGI,UACC-62 melanoma,898 nM
same,GI50,HOP-92 NSCLC,1050 nM
same,TGI,HOP-92 NSCLC,> 100000 nM
same,GI50,SR leukemia,86.2 nM
same,TGI,SR leukemia,672 nM
same,GI50,NCI-H522 lung,293 nM
same,TGI,NCI-H522 lung,2070 nM
same,GI50,SF-268 CNS,155 nM
same,TGI,SF-268 CNS,> 20700 nM
same,GI50,LOX IMVI melanoma,140 nM
same,TGI,LOX IMVI melanoma,922 nM
same,GI50,BT-549 breast,380 nM
same,TGI,BT-549 breast,> 34900 nM
same,GI50,NCI/ADR-RES ovarian,598 nM
same,TGI,NCI/ADR-RES ovarian,17600 nM
same,GI50,U251 CNS,145 nM
same,TGI,U251 CNS,> 37600 nM
same,GI50,K-562 leukemia,147 nM
same,TGI,K-562 leukemia,3470 nM
same,GI50,PC-3 prostate,434 nM
same,TGI,PC-3 prostate,> 100000 nM
same,GI50,OVCAR-8 ovarian,322 nM
same,TGI,OVCAR-8 ovarian,> 33000 nM
same,GI50,RXF 393 renal,156 nM
same,TGI,RXF 393 renal,440 nM
same,GI50,RPMI-8226 leukemia,120 nM
same,TGI,RPMI-8226 leukemia,555 nM
same,GI50,TK-10 renal,420 nM
same,TGI,TK-10 renal,> 100000 nM
same,GI50,COLO 205 colon,281 nM
same,TGI,COLO 205 colon,1090 nM
same,GI50,ACHN renal,142 nM
same,TGI,ACHN renal,2560 nM
same,GI50,HS 578T breast,321 nM
same,TGI,HS 578T breast,3600 nM
same,GI50,CAKI-1 renal,268 nM
same,TGI,CAKI-1 renal,2070 nM
same,GI50,SW-620 colon,404 nM
same,TGI,SW-620 colon,> 64700 nM
same,GI50,SF-295 CNS,122 nM
same,TGI,SF-295 CNS,927 nM
same,GI50,HCC-2998 colon,250 nM
same,TGI,HCC-2998 colon,1400 nM
same,GI50,786-0 renal,188 nM
same,TGI,786-0 renal,447 nM
same,GI50,MDA-MB-435,454 nM
same,TGI,MDA-MB-435,7790 nM
same,GI50,SNB-19 CNS,390 nM
same,TGI,SNB-19 CNS,> 73600 nM
same,GI50,SN12C renal,395 nM
same,TGI,SN12C renal,> 100000 nM
same,GI50,A549 NSCLC,439 nM
same,TGI,A549 NSCLC,> 100000 nM
same,GI50,SNB-75 CNS,152 nM
same,TGI,SNB-75 CNS,3410 nM
same,GI50,EKVX NSCLC,167 nM
same,TGI,EKVX NSCLC,1760 nM
same,GI50,HT29 colon,339 nM
same,TGI,HT29 colon,1680 nM
same,GI50,HL-60(TB) leukemia,258 nM
same,TGI,HL-60(TB) leukemia,791 nM
